This is an account of results in ChEMBL document CHEMBL5465560, “Selectivity Literature for EUbOPEN Chemogenomic Library” (2024).

Residue numbers refer to the chain shown, from its start.

Common to all, as to conditions: at 10 µM
The target of assay [1] is Receptor-type tyrosine-protein kinase FLT3 (Homo sapiens) (UniProt P36888). As to the kind of experiment: (§1) Selectivity interaction (KinomeScan (DiscoverX)) EUB0000655a FLT3.
For assay [2], the system named is T1, Receptor-type tyrosine-protein kinase FLT3 (Homo sapiens), P36888 [D835Y].
T1 sequence (whole entry): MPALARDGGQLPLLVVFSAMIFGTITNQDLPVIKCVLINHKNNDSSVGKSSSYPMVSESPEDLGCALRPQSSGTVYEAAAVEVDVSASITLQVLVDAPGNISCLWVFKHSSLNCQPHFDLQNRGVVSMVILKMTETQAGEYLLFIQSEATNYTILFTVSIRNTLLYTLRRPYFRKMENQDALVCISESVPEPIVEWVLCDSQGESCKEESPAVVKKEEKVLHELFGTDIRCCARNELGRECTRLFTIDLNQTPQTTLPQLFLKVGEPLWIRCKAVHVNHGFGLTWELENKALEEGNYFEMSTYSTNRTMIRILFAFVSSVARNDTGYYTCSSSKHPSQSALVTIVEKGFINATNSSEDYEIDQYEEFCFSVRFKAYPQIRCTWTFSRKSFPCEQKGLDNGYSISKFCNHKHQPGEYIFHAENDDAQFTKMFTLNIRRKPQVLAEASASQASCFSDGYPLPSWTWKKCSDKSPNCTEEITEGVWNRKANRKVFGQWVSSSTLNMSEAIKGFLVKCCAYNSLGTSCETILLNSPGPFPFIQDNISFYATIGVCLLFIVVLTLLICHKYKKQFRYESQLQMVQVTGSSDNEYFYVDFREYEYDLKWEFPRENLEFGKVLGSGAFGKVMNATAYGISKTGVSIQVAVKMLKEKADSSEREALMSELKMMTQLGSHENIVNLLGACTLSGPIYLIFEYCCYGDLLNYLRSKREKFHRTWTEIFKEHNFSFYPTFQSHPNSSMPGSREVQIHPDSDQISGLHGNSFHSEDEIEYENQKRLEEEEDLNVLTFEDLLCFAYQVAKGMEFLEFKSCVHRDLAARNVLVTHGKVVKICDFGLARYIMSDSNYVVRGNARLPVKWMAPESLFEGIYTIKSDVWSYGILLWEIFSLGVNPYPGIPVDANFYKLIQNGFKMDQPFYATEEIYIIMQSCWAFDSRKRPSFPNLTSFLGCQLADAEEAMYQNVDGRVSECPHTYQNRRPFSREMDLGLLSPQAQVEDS
Described as §1.

The test system of assay [3] is T2, Receptor-type tyrosine-protein kinase FLT3 (Homo sapiens), P36888 [K663Q].
T2 sequence (whole entry): T1 sequence (whole entry) with K663Q, Y835D
The description is as §1.

Assay [4] has as its target T3, Mitogen-activated protein kinase kinase kinase 3 (Homo sapiens) (UniProt Q99759).
T3 sequence (whole entry): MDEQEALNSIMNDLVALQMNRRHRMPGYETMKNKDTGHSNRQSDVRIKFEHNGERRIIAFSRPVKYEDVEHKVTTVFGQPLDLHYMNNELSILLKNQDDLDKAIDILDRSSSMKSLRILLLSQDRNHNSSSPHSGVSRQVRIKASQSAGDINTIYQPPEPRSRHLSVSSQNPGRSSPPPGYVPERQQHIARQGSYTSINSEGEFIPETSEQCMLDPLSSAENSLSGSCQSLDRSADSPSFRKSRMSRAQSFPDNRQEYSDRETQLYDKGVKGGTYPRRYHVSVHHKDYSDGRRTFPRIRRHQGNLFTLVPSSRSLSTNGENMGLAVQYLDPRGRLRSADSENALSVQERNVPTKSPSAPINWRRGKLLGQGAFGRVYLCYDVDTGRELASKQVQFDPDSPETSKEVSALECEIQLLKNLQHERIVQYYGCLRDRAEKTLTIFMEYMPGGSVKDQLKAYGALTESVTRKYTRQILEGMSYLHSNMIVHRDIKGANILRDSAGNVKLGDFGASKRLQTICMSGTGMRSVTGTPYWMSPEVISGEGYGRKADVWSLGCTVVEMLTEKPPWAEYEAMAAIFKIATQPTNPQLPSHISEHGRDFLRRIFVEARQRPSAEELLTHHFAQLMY
As to the kind of experiment: Selectivity interaction (LanthaScreen Eu Kinase Binding Assay) EUB0001632a MAP3K3.

On to `CN(C)CCOc1ccc(-c2nc(-c3ccncc3)c(-c3ccc4c(c3)CC/C4=N\O)[nH]2)cc1`, for which the results for the % of control in assay [1], in assay [2] and in assay [3] were 62%, 64% and 90%, respectively.
As to `Cn1cc(-n2cnc3c(NCc4nc5cc(Cl)c(Cl)cc5[nH]4)nc(N4CCOCC4)nc32)cn1`, the % of inhibition in assay [4] was -26.4%.
